Consider 1 compound from patent publication US11203608B2, “Platinum-containing compounds, and related compositions and uses thereof” (Massachusetts Institute of Technology, priority 2019, dated 2021).

Data set [1] concerns cisplatin-resistant A2780CIS human ovarian cancer cell line. As to the kind of experiment: Cell growth, resazurin assay, A2780CIS. The data set is classed as cell-based. The following applies: 72-h exposure.
Experimental: (§1) Cells were cultured in 10 mL of Advanced DMEM/F12 (ADMEM/F12), supplemented with 5% FBS, 2 mM GlutaMAX, and 1% Penicillin-Streptomycin in 10 cm tissue culture plates. Cells were then plated into 96-well plates with about 2.5×10^3 cells per well. Cells were plated with 200 μL per well of ADMEM/F12 supplemented with 5% FBS, 2 mM GlutaMAX, and 1% Penicillin-Streptomycin. Cells were treated with dose responses of doxorubicin, oxaliplatin, or doxaliplatin upon plating. The cells were then cultured for 72 hours following drug treatment, and cell growth was measured by resazurin assay.
A short description of data set [2]: Solubility and stability in organic solvents (observed during NMR). The data set is classed as physicochemical. How it is done: To a stirred solution of K2PtCl4 (41.5 mg, 0.100 mmol) in water (30 mL), a solution of 9 bis(trifluoroacetic acid) salt (77.0 mg, 0.100 mmol) in water (9 mL) was added in one portion. Red precipitate formed immediately. The reaction was stirred at room temperature for 24 h. To the same solution was added AgNO3 aq. solution (0.10 M, 4.0 mL). The reaction was stirred at room temperature for 24 h. To this mixture was then added K2C2O4 aq. solution (0.20 M, 0.50 mL). The reaction was stirred at room temperature for 24 h. The reaction mixture was lyophilized together with a small amount of C18-reversed phase silica gel. […] The multiplicity of some ^1H NMR signals were not determined due to overlap. […] Due to the relatively low concentration of 12 in […], only part of the ^13C NMR signals were detected through ^13C-^1H correlation experiments. The ^13C NMR signals of Conformer A detected by ^1H-^13C HSQC and ^1H-^13C HMBC spectroscopy: ^13C{^1H} NMR (101 MHz, DMSO-d6) δ 16.98, 31.68, 34.80, 37.89, 55.85, 56.35, 64.07, 65.27, 66.70, 68.15, 98.84, 118.56, 118.86, 134.84, 159.78. The ^13C NMR signals of Conformer B detected by ^1H-^13C HSQC and ^1H-^13C HMBC spectroscopy: ^13C{^1H} NMR (101 MHz, DMSO-d6) δ 17.24, 32.01, 36.73, 37.27, 56.13, 56.31, 63.56, 64.07, 68.53, 69.85, 99.05, 118.68, 118.84, 135.99, 160.62. ^195Pt NMR (86 MHz, DMSO-d6) δ−1989 (br). […]

Data set [3] concerns A2780 human ovarian cancer cell line. The data set can be described thus: Cell growth, resazurin assay, A2780. The data set is classed as cell-based. The following applies: A2780, 72-h exposure.
Experimental: as §1

Turning to `COc1cccc2c1C(=O)c1c(O)c3c(c(O)c1C2=O)CC(O)(C(=O)CO)CC3OC1CC(N)C(N)C(C)O1.O=C1[O][Pt][O]C1=O` (centres unmarked) [DoxPt, Doxaliplatin], in data set [1], the IC50 turned out to be 280 nM, it took 380 nM to reach the 90% level (IC90) and the IC95 stood at 410 nM. Besides, in data set [2] (DMF), the “Solubility in DMF” value is “low solubility”. For the same compound, in data set [2] (DMSO-d6), the “Solubility in DMSO-d6” value is listed as “relatively high solubility”. In data set [3], this compound came in with an IC50 of 16 nM, an IC90 of 380 nM and an IC95 of 680 nM.
